Data taken from patent US5354758A, “Benzomorphans useful as NMDA receptor antagonists” (priority 1992, dated 1994).
Where two headings read alike, the source gives them in different places.

Tests used:
[1] = target: T1, μ-site of opioid receptor (Rattus norvegicus, UniProt P33535); assay: In vitro binding, inhibition of [^3 H]DAGO binding to rat forebrain synaptic membranes; design: species or system Sprague-Dawley rat
T1 construct: Semipurified synaptic membranes were prepared according to the method of Toll et al. (1984); from tissue; host or cells: adult male Sprague-Dawley rat forebrain membranes
T1 sequence (P33535 whole entry): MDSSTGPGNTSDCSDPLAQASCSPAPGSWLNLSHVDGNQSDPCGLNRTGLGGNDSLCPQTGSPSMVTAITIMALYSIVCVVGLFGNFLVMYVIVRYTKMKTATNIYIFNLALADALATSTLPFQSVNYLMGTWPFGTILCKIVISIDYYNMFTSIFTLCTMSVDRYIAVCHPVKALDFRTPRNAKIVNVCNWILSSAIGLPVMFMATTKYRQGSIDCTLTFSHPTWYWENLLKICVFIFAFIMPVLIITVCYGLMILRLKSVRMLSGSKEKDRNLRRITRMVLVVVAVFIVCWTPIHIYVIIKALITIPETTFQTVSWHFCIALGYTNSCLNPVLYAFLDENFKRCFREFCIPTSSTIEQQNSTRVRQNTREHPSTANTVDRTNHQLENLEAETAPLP
Procedure: (§1) As described below, the compounds of the invention were tested for their ability to inhibit binding of radiolabeled versions of these known ligands.
Semipurified synaptic membranes were prepared according to the method of Toll et al. (1984). Adult male Sprague-Dawley rats were decapitated, and the forebrains were removed, weighed, and homogenized in 20 volumes of […] Tris-HCl, pH 7.7. The homogenate was centrifuged at 27,000×G for 15 minutes, and the resulting pellet was resuspended in buffer and recentrifuged twice. The washed membranes were resuspended in buffer to obtain a membrane concentration of 7.2 mg brain weight/mL; the final concentration in each assay tube was 12.2 mg/2 mL. […] The reaction was stopped by filtration through GF/B filters using a Brandel Cell Harvester. After washing twice with 5 mL of ice cold buffer, the filters were suspended in 5 mL scintillation fluid, and the radioactivity was counted after standing at room temperature overnight.

NMDA-induced lethality = assay: In vivo protection in the mouse against NMDA-induced lethality; design: species or system Swiss-Webster mouse; settings: ip, 30 minutes before 200 mg/kg NMDA, eight mice per dose, Litchfield and Wilcoxin; for ED50: Mus musculus
Procedure: (§2) According to the method described by Ferkany et al. (1988), the test compounds were administered ip to four male Swiss-Webster mice (26-34 g) each, following 30 minutes later, 200 mg/kg of NMDA was administered to the mice each. […] Those compounds that protected three or more of the mice at any of the doses were evaluated further by determining the ED50 values using three or more doses with the eight mice per dose. The ED50 was estimated by the method of Litchfield and Wilcoxin (1949). Water-soluble compounds were dissolved in distilled water and administered in a volume of 10 ml/kg. Water-insoluble compounds were suspended in an aqueous solution of 0.5% methyl cellulose and administered in a volume of 20 ml/kg.

[2] = target: T2, σ-site of opioid receptor (Cavia porcellus, UniProt Q60492); assay: In vitro binding, inhibition of [^3 H]PPP binding to guinea pig brain homogenate; design: species or system Hartley guinea pig; settings: for Ki: guinea pig brain homogenate, 0.6 nM [^3 H]PPP, 25° C., 1 hour
T2 construct: Hartley guinea pigs were decapitated, and the brains were removed and homogenized; from tissue; host or cells: Hartley guinea pig brain homogenate (washed membranes)
T2 sequence (Q60492 whole entry): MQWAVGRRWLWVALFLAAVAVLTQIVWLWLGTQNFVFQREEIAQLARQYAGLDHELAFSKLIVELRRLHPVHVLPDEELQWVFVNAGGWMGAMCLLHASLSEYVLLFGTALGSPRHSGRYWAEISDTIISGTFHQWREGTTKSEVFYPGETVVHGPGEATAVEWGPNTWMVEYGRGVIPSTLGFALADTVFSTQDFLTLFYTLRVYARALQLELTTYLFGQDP
Procedure: as §1
Hartley guinea pigs were decapitated, and the brains were removed and homogenized in 20 volumes of 50 mM Tris-HCl using a Polytron homogenizer. The homogenate was centrifuged at 27,000×G for 15 minutes, and the pellet was resuspended in 50 mM Tris-HCl. The centrifugation procedure was repeated twice. The pellet was diluted to approximately 8 mg wet tissue/assay. Various concentrations of the test compounds (100 μL) and [^3 H]PPP (100 μL, final concentration 0.6 nM) were incubated with 1.8 mL of the tissue homogenate at 25° C. for 1 hour. Unlabeled PPP (final concentration 10 μM) was added to some tubes to determine nonspecific binding. The reaction was stopped by filtration through GF/B filters using a Brandel Cell Harvester. After washing twice with […] of ice cold Tris-HCl, the filters were suspended in 5 mL of scintillation fluid, and the radioactivity was counted after standing at room temperature overnight.
Table 1 summarizes the results of the in vitro binding studies using these three radioligands at the NMDA receptor site, μ-site and σ-site of opioid receptor, respectively.

NMDA receptor site [3] = assay: In vitro binding, inhibition of [^3 H]MK-801 binding to rat forebrain synaptic membranes; design: species or system Sprague-Dawley rat; settings: 3 nM [^3 H]MK-801, 50 μM glycine and glutamate, 37° C., 2 hours, read-out: Ki [^3 H]MK801
Procedure: as §1
Semipurified synaptic membranes were prepared according to the method of Bristow et al. (1986) with minor modifications. Sprague-Dawley rats were decapitated and the forebrains were removed, weighed, and homogenized in 20 volumes of 0.32M sucrose. The homogenate was centrifuged at 121×G for 10 min. The resulting supernatant was recentrifuged at 27,000×G for 15 min. The pellet was resuspended in 20 volumes of distilled water and this suspension was centrifuged at 8,000×G for 10 min. Both the supernatant and the buffy coat layer, removed with 2 mL of 5 mM Tris-Cl (pH 7.8), were pooled and centrifuged at 27,000×G for 15 min. The supernatant was removed, the pellet was covered with a small amount of 5 mM Tris-Cl, and the sample was frozen for at least 18 hrs at -20° C. Membranes were then washed four times in 5 mM Tris-Cl and finally resuspended in 25 mL. This preparation was used for the binding assay immediately or frozen for subsequent use.
The incubation was terminated by rapid filtration (Brandel Cell Harvester) over Whatman GF/B filters, which were then washed twice with 5 mL of 5 mM Tris-HCl. Radioactivity trapped on the filters was counted in 5 mL Scintiverse II at 50% efficiency in 7 mL minivials after standing at room temperature overnight.

[4] = system: σ-site of opioid receptor; settings: shown previously; cited from earlier work
mice = assay: Lethality of NMDA in mice; type: in vivo, Swiss-Webster mouse; settings: NMDA at 200 mg/kg
Procedure: as §2

NMDA receptor site [5] = settings: shown previously; cited from earlier work
[6] = Ki [^3 H]DAGO, 2 nM [^3 H]DAGO, 25° C., 1 hour

| SMILES | Ki [1, 6] [µM] | Mouse ED50 (NMDA-induced lethality) [mg/kg] | Ki ([2]; read-out: Ki [^3 H]PPP) [µM] | Ki (NMDA receptor site [3]) [µM] | ED50 (NMDA-induced lethality) [mg/kg] | further results |
| --- | --- | --- | --- | --- | --- | --- |
| CN1CC[C@@]23CCCC[C@@H]2[C@@H]1Cc1ccc(O)cc13 [Dextrorphan, reference compound] | 2.2 | 34.6 |  |  |  |  |
| CC(C1CC1)N1CC[C@]2(C)c3ccccc3C[C@H]1[C@H]2C (single isomer, unassigned; (+)) [(+)-IIId-7 (Isomer B)] | 6.58 | 13.7 | 0.071 | 1.99 |  |  |
| C=CC(C)N1CC[C@]2(C)c3ccccc3C[C@H]1[C@H]2C (single isomer, unassigned; (+)) [(+)-BZ-2] | 9.58 |  | 0.1 | 1.32 | 22.1 |  |
| C[C@@H]1[C@@H]2Cc3ccccc3[C@@]1(C)CCN2C(C1CC1)C1CC1 [(+)-BZ-1, (1S,5S,9S)-(+)-2-Dicyclopropylmethyl-5,9-dimethyl-6,7-benzomorphan] | 11.5 |  | 0.16 | 14 | 33.1 |  |
| COc1ccc2c(c1)[C@]13CCCC[C@@H]1[C@H](C2)N(C)CC3 [Dextromethorphan, reference compound] | 1.74 |  |  |  | 39 | Ki ([2]; Ki [^3 H]PPP): 0.15 µM |
| CC(C1CC1)N1CC[C@]2(C)c3cc(F)ccc3C[C@H]1[C@H]2C (single isomer, unassigned; (+)) [(+)-BZ-14 (Isomer B)] |  | 13 | 0.062 | 3.53 |  | Ki ([1]; read-out: Ki [^3 H]DAGO, 2 nM [^3 H]DAGO, 25° C., 1 hour): 5.01 µM |
| CC(C)N1CC[C@]2(C)c3cc(F)ccc3C[C@H]1[C@H]2C [(+)-BZ-13, (1S,5S,9S)-(+)-2'-Fluoro-2-isopropyl-5,9-dimethyl-6,7-benzomorphan] | 20.2 |  | 0.26 | 4.15 | 9 |  |
| C#CC(C)N1CC[C@]2(C)c3ccccc3C[C@H]1[C@H]2C (single isomer, unassigned; (+)) [(+)-BZ-6 (Isomer A)] | 12.3 | > 50 | 19.2 | 16.6 |  |  |
| C[C@@H]1[C@@H]2Cc3ccccc3[C@@]1(C)CCN2C(C)(C)C [(+)-BZ-15A, (1S,5S,9S)-(+)-2-Tert-butyl-5,9-dimethyl-6,7-benzomorphan] | 7.29 |  | 0.98 | 2.59 | 10.7 |  |
| CC(C1CC1)N1CC[C@]2(C)c3cc(F)ccc3C[C@H]1[C@H]2C (single isomer, unassigned; (+)) [(+)-BZ-14 (Isomer A)] | 0.72 | 6.1 | 0.014 | 0.85 |  |  |
| C[C@@H]1[C@@H]2Cc3ccccc3[C@@]1(C)CCN2N(C)C [(+)-BZ-18, (1S,5S,9S)-(+)-5,9-dimethyl-2-dimethylamino-6,7-benzomorphan] |  |  | 0.81 | 4.54 | 14.4 |  |
| CC(C)N1CC[C@]2(C)c3cc(Cl)ccc3C[C@H]1[C@H]2C [(+)-BZ-26, (1S,5S,9S)-(+)-2'-Chloro-2-isopropyl-5,9-dimethyl-6,7-benzomorphan] | 11.8 |  | 0.074 | 12.8 | 12.2 |  |
| CC(C1CCC1)N1CC[C@]2(C)c3ccccc3C[C@H]1[C@H]2C (single isomer, unassigned; (+)) [(+)-BZ-3 (Isomer A)] | 11.8 | 16.4 | 0.0012 | 0.22 |  |  |
| CC(C1CO1)N1CC[C@]2(C)c3ccccc3C[C@H]1[C@H]2C (mixture of isomers) [(+)-BZ-5 (Mixture of Isomer B and C), (1S,5S,9S)-(+)-5,9-Dimethyl-2-(1-methyl-2,3-epoxypropyl)-6,7-benzomorphan] | 12.4 |  | 0.042 |  | 32.5 |  |
| CC(C1CC1)N1CC[C@]2(C)c3ccccc3C[C@H]1[C@H]2C (single isomer, unassigned; (+)) [(+)-IIId-7 (Isomer A)] | 3.05 | 6.8 | 0.02 | 0.75 |  |  |
| CCCN1CCCC(c2cccc(O)c2)C1 (stereo not shown) [PPP, reference compound] |  |  |  |  |  | Kd [2]: 0.02 µM; high-affinity ligand at the σ site of the opioid receptor [4]: high-affinity |
| C=CC(C1CC1)N1CC[C@]2(C)c3ccccc3C[C@H]1[C@H]2C (single isomer, unassigned; (+)) [(+)-BZ-4] | 20.2 |  | 0.13 | 11.5 | 24.1 |  |
| CC(C1CCC1)N1CC[C@]2(C)c3ccccc3C[C@H]1[C@H]2C (single isomer, unassigned; (+)) [(+)-BZ-3 (Isomer B)] | 13.5 | > 60 | 0.0081 | 3.61 |  |  |
| CN[C@H](CC(=O)O)C(=O)O [NMDA, N-methyl-D-aspartate] |  |  |  |  |  | mice died (mice): approximately 90% |
| C[C@@H]1[C@@H]2Cc3ccccc3[C@@]1(C)CCN2O [(+)-BZ-17A, (1S,5S,9S)-(+)-2-hydroxy-5,9-dimethyl-6,7-benzomorphan] | 21.9 |  | 25.9 | 43 | 21.6 |  |
| CC(C1CO1)N1CC[C@]2(C)c3ccccc3C[C@H]1[C@H]2C (single isomer, unassigned; (+)) [(+)-BZ-5 (Isomer A)] | 9.74 |  | 0.04 | 29.2 |  |  |
| C#CC(C)N1CC[C@]2(C)c3ccccc3C[C@H]1[C@H]2C (single isomer, unassigned; (+)) [(+)-BZ-6 (Isomer B)] | 9 | 18.8 | 1.1 | 2.55 |  |  |
| CC(C1CO1)N1CC[C@]2(C)c3ccccc3C[C@H]1[C@H]2C (single isomer, unassigned; (+)) [(+)-BZ-5] | 5.8 |  | 0.011 | 11.6 |  |  |
| CC(C)N1CC[C@]2(C)c3ccccc3C[C@H]1[C@H]2C [(+)-IIId-6, (1S,5S,9S)-(+)-2-Isopropyl-5,9-dimethyl-6,7-benzomorphan] | 18.9 |  | 0.56 | 3.51 | 17.3 |  |
| C[C@]12N[C@H](Cc3ccccc31)c1ccccc12 [MK-801] |  |  |  |  |  | high-affinity ligand at the NMDA receptor site (NMDA receptor site [5]): high-affinity |
